The values below come from article PMC6630832, “3-Vinylazetidin-2-Ones: Synthesis, Antiproliferative and Tubulin Destabilizing Activity in MCF-7 and MDA-MB-231 Breast Cancer Cells” (Pharmaceuticals, 2019).

“And” between values parts separate entries of the source, which are not always exact repeats. Identical values can stand only once. Like-named read-outs stand apart in the source and are kept apart here.

The test system of one test is NCI 60 cell line panel. Nature of the test: NCI60 cell line screen (SRB assay), whole panel or sub-panels. It counts as cell-based. From the text: The results are summarized in Tables S3–S5, Supplementary Information.
Table S5: NCI 60 cell line mean screening results for selected compounds NCI Ref. Compound GI50 TGI LC50 […]
a GI50 and LC50 are the mean concentrations required to inhibit the growth and kill 50 % of the cells over the total NCI 60 cell line panel in the assay respectively. […]
over the total NCI 60 cell line panel.
In general terms: Sulforhodamine B stains cellular protein and so reports cell mass.

For the next test, the target named is T1, purified bovine tubulin (Bos taurus, UniProt P81947+Q6B856).
T1 construct: Purified (>99%) bovine brain tubulin (3 mg/mL); purchased Cytoskeleton Inc. BK006; host or cells: bovine brain (tissue-purified)
Nature of the test: Tubulin polymerization assay. It counts as biochemical. The following applies: for vmax of tubulin polymerization: absorbance at 340 nm, 37 °C. How it is done:
The assembly of purified bovine tubulin was monitored using a kit, BK006, purchased from Cytoskeleton Inc., 1830 S Acoma St, Denver, CO, 80223, USA.. The assay was carried out in accordance with the manufacturer’s instructions in the tubulin polymerisation assay kit manual using the standard assay conditions. The values reported represent the average values from two independent assays. Purified (>99%) bovine brain tubulin (3 mg/mL) in a buffer consisting of 80 mM PIPES (pH 6.9), 0.5 mM EGTA, 2 mM MgCl2, 1 mM GTP and 10% glycerol was incubated at 37 °C in the presence of either vehicle (2% (v/v) ddH2O) or compounds 7h, 7i, 7s, 7t (initially 10 µM in EtOH); CA-4 and Paclitaxel were used as controls. Light is scattered proportionally to the concentration of polymerised microtubules in the assay. Therefore, tubulin assembly was monitored turbidimetrically at 340 nm at 37 °C in a Spectramax 340 PC spectrophotometer (Molecular Devices, 3860 N 1st St, San Jose, CA, USA). The absorbance was measured at 30 s intervals for 60 min.

Test [1] has as its system human MCF-7 breast cancer cells. The test is described as follows: Cell viability (Alamar Blue) antiproliferative assay in MCF-7 cells. It counts as cell-based. How it is done:
The human breast carcinoma cell line MCF-7, was purchased from the European Collection of Animal Cell Cultures (ECACC) and was cultured in Eagle’s minimum essential medium with 10% fetal bovine serum, 2 mM L-glutamine and 100 μg/mL penicillin/streptomycin. The medium was supplemented with 1% non-essential amino acids. The human breast carcinoma cell line MDA-MB-231 was purchased from the European Collection of Animal Cell Cultures (ECACC). MDA-MB-231 cells were maintained in Dulbecco’s modified Eagle’s medium (DMEM) supplemeted with 10% (v/v) fetal bovine serum, 2 mM L-glutamine and 100 μg/mL penicillin/streptomycin (complete medium). All media contained 100 U/mL penicillin and 100 μg/mL streptomycin. Triple negative breast cancer Hs578T cells and its invasive variant Hs578Ts(i)8 were obtained as a kind gift from Dr. Susan McDonnell, School of Chemical and Bioprocess Engineering, University College Dublin and were cultured in Dulbecco’s Modified Eagle’s Media (DMEM) with GlutaMAX^TM-I, with the same supplement as for MDA-MB-231 cells in the absence of non-essential amino acids. HEK-293T normal epithelial embryonic kidney cells were cultured in Dulbecco’s Modified Eagle’s Medium (DMEM) with GlutaMAX^TM-I in the absence of non-essential amino acids. K562 and HL-60 cells were originally obtained from the European Collection of Cell Cultures (Salisbury, UK).The K562 cells were derived from a patient in the blast crisis stage of CML HL-60 cells were derive from a patient with acute myeloid leukaemia. Cells were cultured in RPMI-1640 Glutamax medium supplemented with 10% FCS media, and 100 μg/mL penicillin/streptomycin. Cells were maintained at 37 °C in 5% CO2 in a humidified incubator. All cells were sub-cultured three times/week (adherent cells by trypsinisation).
Cells were seeded at a density of 5 × 10^3 cells/well (MCF-7), in triplicate in 96-well plates. After 24 h, cells were then treated with either medium alone, vehicle [1% ethanol (v/v)] or with serial dilutions of CA-4 or β-lactam analogue. Cell viability for MCF-7 and MDA-MB-231 was analysed using the Alamar Blue assay (Invitrogen Corp, Thermo Fisher Scientific, 168 Third Avenue, Waltham, MA, USA) according to the manufacturer’s instructions. After 72 h, Alamar Blue [10% (v/v)] was added to each well and plates were incubated for 3–5 h at 37 °C in the dark. Fluorescence was read using a 96-well fluorimeter with excitation at 530 nm and emission at 590 nm. Results were expressed as percentage viability relative to vehicle control (100%). Dose response curves were plotted and IC50 values (concentration of drug resulting in 50% reduction in cell survival) were obtained using the commercial software package Prism (GraphPad Software, Inc., 2365 Northside, Suite 560, San Diego, CA, USA). Experiments were performed in triplicate on at least three separate occasions.
(In general: Resazurin is reduced to fluorescent resorufin, in cell work by metabolically active cells.)

Another test relates to SW-620. The test is described as follows: NCI60 screen (SRB), Colon Cancer. Format: cell-based. The conditions noted are these: Homo sapiens.
For the next test, the system named is SF295. Nature of the test: NCI60 screen (SRB), CNS Cancer. Format: cell-based. The conditions noted are these: Homo sapiens, SF-295.
The test system of another test is SK-MEL-5. The test is described as follows: NCI60 screen (SRB), Melanoma. It counts as cell-based. The following applies: Homo sapiens.
Another test deals with U251. The test is described as follows: NCI60 screen (SRB), CNS Cancer. The following applies: Homo sapiens, U-251. Format: cell-based.
The test system of the next test is K-562. The test is described as follows: NCI60 screen (SRB), Leukemia. Format: cell-based. The following applies: Homo sapiens, K562.
[2] abbreviates: mean over the total NCI 60 cell line panel.
Setting [3] is: mean over the total NCI 60 cell line panel, read-out: GI50 (mean).
[4] abbreviates: mean over the total NCI 60 cell line panel, read-out: LC50 (mean).
Setting [5] is: over the full 60 cell line panel, read-out: mean GI50.
Where [6] appears, read: Homo sapiens, MCF7, Table S9, MCF-7 IC50 at which the toxicity was estimated, read-out: IC50, MCF-7.
[7] abbreviates: 10 μM, with reference to ethanol control.
[8] abbreviates: MCF7, human MCF-7 breast cancer cells, 72 h, mean ± SEM, read-out: Antiproliferative Activity IC50.
Setting [9] is: NCI60 Colon Cancer cell line SW-620, read-out: GI50.
Where [10] appears, read: NCI60 CNS Cancer cell line SF295, read-out: GI50.
Where [11] appears, read: Homo sapiens, MCF7, 72 h, human MCF-7 breast cancer cells, 72 h, mean ± SEM, read-out: Antiproliferative Activity IC50.
The mark [12] stands for this setting: NCI60 Melanoma cell line SK-MEL-5, read-out: GI50.
The mark [13] stands for this setting: NCI60 CNS Cancer cell line U251, read-out: GI50.
Where [14] appears, read: NCI60 Leukemia cell line K-562, read-out: GI50.

T1 sequence (Q6B856 whole entry): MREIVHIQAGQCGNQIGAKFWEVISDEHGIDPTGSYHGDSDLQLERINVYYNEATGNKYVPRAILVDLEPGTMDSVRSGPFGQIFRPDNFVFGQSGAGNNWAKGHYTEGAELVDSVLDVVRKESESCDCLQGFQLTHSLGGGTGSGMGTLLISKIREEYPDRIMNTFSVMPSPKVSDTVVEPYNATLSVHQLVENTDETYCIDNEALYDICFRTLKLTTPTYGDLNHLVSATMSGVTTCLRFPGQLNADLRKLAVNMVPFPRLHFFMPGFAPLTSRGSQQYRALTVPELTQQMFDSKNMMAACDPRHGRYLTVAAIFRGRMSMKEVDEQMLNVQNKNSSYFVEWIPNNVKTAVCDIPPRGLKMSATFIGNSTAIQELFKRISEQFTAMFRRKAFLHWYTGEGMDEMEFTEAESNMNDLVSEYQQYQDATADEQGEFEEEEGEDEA
T1 sequence (P81947 whole entry): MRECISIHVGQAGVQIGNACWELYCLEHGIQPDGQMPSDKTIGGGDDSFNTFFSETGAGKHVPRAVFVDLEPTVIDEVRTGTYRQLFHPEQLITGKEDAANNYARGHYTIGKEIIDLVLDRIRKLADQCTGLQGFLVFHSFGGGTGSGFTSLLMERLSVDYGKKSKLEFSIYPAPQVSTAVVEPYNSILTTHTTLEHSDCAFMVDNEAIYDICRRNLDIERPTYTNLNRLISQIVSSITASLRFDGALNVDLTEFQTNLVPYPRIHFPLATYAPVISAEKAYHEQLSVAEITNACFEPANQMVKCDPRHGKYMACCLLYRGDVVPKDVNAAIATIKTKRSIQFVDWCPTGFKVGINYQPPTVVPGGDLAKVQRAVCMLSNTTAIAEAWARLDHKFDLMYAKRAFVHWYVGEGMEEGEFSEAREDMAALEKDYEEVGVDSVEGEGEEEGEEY

As to `COc1ccc(/C=C\c2cc(OC)c(OC)c(OC)c2)cc1O` [CA-4, Combretastatin A-4, reference compound], the “TGI (mean)” value in the test on NCI 60 cell line panel (setting [2]) turned out to be 10300 nM. In addition, the figures for the concentration for 50% growth inhibition (GI50) in the test on NCI 60 cell line panel (setting [3]) and in the test on NCI 60 cell line panel (setting [5]) were 99.3 nM and 99 nM, respectively. Moreover, the CC50 in the test with NCI 60 cell line panel (setting [4]) was 85500 nM. The “fold reduction in vmax of tubulin polymerization” value (shortened to “fold reduction in vmax”) on purified bovine tubulin was 5.28 fold. In addition, the IC50 in test [1] (setting [6]) is 5.2 nM.
Take `C=CC1C(=O)N(c2cc(OC)c(OC)c(OC)c2)C1c1ccc(OC)cc1` (centres unmarked) [Compound 7h, 4-(4-Methoxyphenyl)-1-(3,4,5-trimethoxyphenyl)-3-vinylazetidin-2-one]: the GI50 with NCI 60 cell line panel (60 cell, read-out: GI50 (mean)) was found to be 52.5 nM; in the test on NCI 60 cell line panel (60 cell, read-out: mean GI50), 52 nM; with SW-620 (SW-620), 40.2 nM; with SF295 it was 35.8 nM; with SK-MEL-5 (SK-MEL-5), 19.4 nM; in the test on U251, 34.2 nM. For the same compound, the CC50 in the test with NCI 60 cell line panel (60 cell, read-out: LC50) was above 100000 nM; in the test with NCI 60 cell line panel (60 cell, read-out: LC50 (mean)) it was 75900 nM. The “TGI (mean)” value in the test on NCI 60 cell line panel (setting [2]) was 23440 nM. The “vmax of tubulin polymerization” value at purified bovine tubulin (10 μM) is 3.43 mOD/min. Further, at purified bovine tubulin (setting [7]), the “fold reduction in vmax” value is given as 2.45 fold. The IC50 in test [1] (setting [8]) worked out at 20 ± 2.5 nM.
For `C=CC1C(=O)N(c2cc(OC)c(OC)c(OC)c2)C1c1ccc(OC)c(O)c1` (centres unmarked) [Compound 7s, 4-[3-Hydroxy-4-methoxyphenyl]-1-(3,4,5-trimethoxyphenyl)-3-vinylazetidin-2-one], the GI50 with NCI 60 cell line panel (60 cell) was below 10 nM; in the test on NCI 60 cell line panel (60 cell, read-out: GI50 (mean)), 22.9 nM; in the test on NCI 60 cell line panel (60 cell, read-out: mean GI50), 23 nM; in the test on SW-620 (setting [9]) it was below 10 nM; with SF295 (setting [10]), 271 nM; in the test with SK-MEL-5 (setting [12]), below 10 nM. Besides, the GI50 in the test on U251 (setting [13]) was determined as 15.6 nM. Also, the CC50 in the test with NCI 60 cell line panel (60 cell, read-out: LC50) was above 100000 nM; in the test with NCI 60 cell line panel (60 cell, read-out: LC50 (mean)), 74100 nM. Besides, the “TGI (mean)” value in the test on NCI 60 cell line panel (setting [2]) came to 5890 nM. Further, the “fold reduction in vmax” value at purified bovine tubulin (1 μM) is 2.61 fold; on purified bovine tubulin (5 μM) it was 7.31 fold; at purified bovine tubulin (setting [7]), 8.7 fold and 8.70 fold. Further, the concentration for half-maximal inhibition (IC50) on purified bovine tubulin (calculated from 1, 5 and 10 μM, read-out: IC50 for the inhibition of tubulin polymerization) was 1370 nM; in test [1] (setting [11]), 8 ± 0.71 nM; in test [1] (setting [6]) it was 1.4 nM.
Take `C=CC1C(=O)N(c2cc(OC)c(OC)c(OC)c2)C1c1ccc(OC)c(N)c1` (centres unmarked) [Compound 7t, 4-(3-Amino-4-methoxyphenyl)-1-(3,4,5-trimethoxyphenyl)-3-vinylazetidin-2-one]: the GI50 in the test with NCI 60 cell line panel (60 cell, read-out: GI50 (mean)) is 47.9 nM; in the test with NCI 60 cell line panel (60 cell, read-out: mean GI50), 48 nM; in the test with SW-620 (SW-620), 40.5 nM; with SF295, 21.3 nM; with K-562 it was 37.2 nM; in the test on SK-MEL-5 (SK-MEL-5), 14.6 nM. In the test with U251, this compound returned a GI50 of 36.2 nM. The CC50 with NCI 60 cell line panel (60 cell, read-out: LC50 (mean)) was found to be 89100 nM. The “TGI (mean)” value in the test on NCI 60 cell line panel (setting [2]) is 50120 nM. Further, the “vmax of tubulin polymerization” value on purified bovine tubulin (10 μM) worked out at 0.92 mOD/min. The “fold reduction in vmax” value on purified bovine tubulin (setting [7]) was determined as 9.15 fold. In test [1] (setting [8]), the IC50 was determined as 17 ± 1.8 nM.
For `C=CC1C(=O)N(c2cc(OC)c(OC)c(OC)c2)C1c1ccc(OC)c(OP(=O)(O)O)c1` (centres unmarked) [Compound 17b, 2-Methoxy-5-(1-(3,4,5-trimethoxyphenyl)-4-oxo-3-vinylazetidin-2-yl)phenyl dihydrogen phosphate], in the test on NCI 60 cell line panel (setting [2]), the “TGI (mean)” value stood at 36300 nM. Besides, the GI50 in the test with NCI 60 cell line panel (setting [3]) amounted to 72.4 nM; in the test on SW-620 (setting [9]), 55.2 nM; with SF295 (setting [10]), 29.1 nM; in the test on K-562 (setting [14]), 41.5 nM; in the test on SK-MEL-5 (setting [12]) it was 31.2 nM; with U251 (setting [13]), 34.3 nM. Besides, the CC50 in the test on NCI 60 cell line panel (setting [4]) stood at 87100 nM. For the same compound, in test [1] (setting [11]), the half-maximal inhibitory concentration (IC50) came to 27 ± 2 nM.
For `CCC1C(=O)N(c2cc(OC)c(OC)c(OC)c2)C1c1ccc(OC)c(OP(=O)(O)O)c1` (centres unmarked) [Compound 17c, 5-(3-Ethyl-1-(3,4,5-trimethoxyphenyl)-4-oxoazetidin-2-yl)-2-methoxyphenyl dihydrogen phosphate], in the test with NCI 60 cell line panel (setting [2]), the “TGI (mean)” value was found to be 43650 nM. The GI50 was 138 nM in the test with NCI 60 cell line panel (setting [3]); 73 nM in the test with NCI 60 cell line panel (setting [5]); 37.9 nM in the test with SW-620 (setting [9]); 24.3 nM in the test with SF295 (setting [10]); 35 nM in the test with K-562 (setting [14]); 19 nM with SK-MEL-5 (setting [12]). The GI50 with U251 (setting [13]) amounted to 31.3 nM. Further, the CC50 with NCI 60 cell line panel (setting [4]) was found to be 85100 nM. For the same compound, the IC50 in test [1] (setting [11]) is 21 ± 1.5 nM.

One may read the GI50 as the concentration giving 50% growth inhibition. A word on the IC50: it is the midpoint of a concentration-inhibition curve.
